The target in test [1] is T1, HPK1 protein (Mus musculus, UniProt P70218).
T1 construct: the CD3+ T cell population was isolated from spleenocytes of mice; endogenous in cells; host or cells: primary mouse splenic CD3+ (pan) T cells
T1 sequence (P70218 1-827): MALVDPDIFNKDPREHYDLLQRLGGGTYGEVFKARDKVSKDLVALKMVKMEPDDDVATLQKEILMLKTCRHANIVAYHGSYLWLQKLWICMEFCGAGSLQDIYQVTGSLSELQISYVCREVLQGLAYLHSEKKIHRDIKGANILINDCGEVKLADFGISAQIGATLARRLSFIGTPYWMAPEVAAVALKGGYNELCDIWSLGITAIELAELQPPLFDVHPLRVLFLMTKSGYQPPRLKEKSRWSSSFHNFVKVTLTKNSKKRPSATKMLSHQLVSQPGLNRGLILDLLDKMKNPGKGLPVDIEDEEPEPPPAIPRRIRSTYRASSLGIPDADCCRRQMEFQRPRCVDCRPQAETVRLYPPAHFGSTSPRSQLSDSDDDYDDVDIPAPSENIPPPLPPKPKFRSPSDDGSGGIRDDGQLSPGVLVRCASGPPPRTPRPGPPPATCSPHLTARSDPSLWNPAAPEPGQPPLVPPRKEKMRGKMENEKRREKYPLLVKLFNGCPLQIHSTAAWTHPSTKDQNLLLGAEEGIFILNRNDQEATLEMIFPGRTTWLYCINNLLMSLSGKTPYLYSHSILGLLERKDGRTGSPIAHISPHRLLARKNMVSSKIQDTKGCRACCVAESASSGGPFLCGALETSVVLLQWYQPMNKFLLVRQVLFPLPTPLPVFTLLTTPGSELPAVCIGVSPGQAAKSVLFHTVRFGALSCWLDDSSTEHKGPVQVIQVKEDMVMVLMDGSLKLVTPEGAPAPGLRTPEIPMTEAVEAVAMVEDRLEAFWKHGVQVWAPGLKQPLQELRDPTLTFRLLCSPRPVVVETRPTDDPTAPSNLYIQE
Kind of test: HPK1 protein degradation in mouse pan T cell (western blot). In kind it is cell-based. Conditions: 18 h incubation. The gist of the method: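 CD3+ pan T cells were isolated from mouse splenocytes and incubated 18 h with a range of compound concentrations. Lysates were normalised by BCA and run on SDS-PAGE. HPK1 was detected by western blot with an anti-human HPK1 polyclonal antibody, with β-actin as loading control.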
Background: In western blotting, separated proteins are transferred to a membrane and probed.

For another test, the system named is HPK1 p-SLP-76. Kind of test: HPK1 p-SLP-76 inhibition assay in human PBMC (HTRF). The format is cell-based. Conditions: 6 h compound, anti-CD3 stimulation 20 min. The gist of the method:
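Human PBMC starved overnight in 0.5% FBS, treated with compound 6 h at 37° C, then stimulated with anti-CD3 (10 ug/mL final) for 20 min. Lysates analysed for phospho-SLP76 by HTRF after overnight detection-antibody incubation at 25° C.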
For orientation: Time-resolved FRET reads energy transfer from a long-lived donor to a nearby acceptor.

Test [2] has as its target T2, HPK1 protein (Homo sapiens, UniProt Q92918).
T2 construct: purchased Signal Chem M23-11G-10
T2 sequence (Q92918 1-346 limits assumed): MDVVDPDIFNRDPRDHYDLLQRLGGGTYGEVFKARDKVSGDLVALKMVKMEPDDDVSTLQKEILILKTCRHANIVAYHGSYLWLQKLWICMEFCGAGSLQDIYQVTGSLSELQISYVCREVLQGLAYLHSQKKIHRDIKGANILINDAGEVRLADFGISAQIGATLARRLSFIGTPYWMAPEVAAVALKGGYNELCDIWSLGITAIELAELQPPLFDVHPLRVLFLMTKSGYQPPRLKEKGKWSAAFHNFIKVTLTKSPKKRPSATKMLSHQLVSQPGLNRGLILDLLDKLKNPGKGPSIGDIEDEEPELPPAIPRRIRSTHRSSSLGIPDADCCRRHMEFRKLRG
Kind of test: HPK1 enzyme inhibition assay (ADP-Glo). Conditions: MBP substrate, ATP, ADP-Glo readout. In kind it is biochemical. An outline of the steps: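 Recombinant human HPK1 preincubated with compound 60 min at 25 °C, then reaction with MBP (0.2 ug/ul, 2× stock) and ATP (20 μM, 2× stock) 60 min at 25 °C. ADP formed detected by ADP-Glo after ATP depletion and conversion to ATP; IC50 calculated from signal.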
(ADP-Glo first removes unused ATP, then detects ADP through luciferase.)

Test [3] deals with T3, HPK1 protein (Homo sapiens, UniProt Q92918).
T3 construct: Frozen human PBMC were purchased from Shanghai OribioTech; host or cells: human PBMC
Kind of test: HPK1 protein degradation in human PBMC (western blot). The format is cell-based. Conditions: 18 h incubation. Here is the method: HPK1 protein degradation in human PBMC: Frozen human PBMC were purchased from Shanghai OribioTech and recovered with culture medium (RMPI1640) prior to use. The cells were then incubated with a variety of concentrations of compound. After incubation for 18 h, the cells were collected and lysed. The protein concentration was determined by BCA protein assay kit from Thermo (23227). The HPK1 protein level was determined by western blots, using anti-human HPK1 polyclonal antibody from CST (4472S). Proteins were loaded into each well of the pre-casting gels and subjected to electrophoretic separation by SDS-PAGE. The protein resolved by SDS-PAGE were transferred to PVDF, blocked by 5% skim milk, and probed with anti-human HPK1 antibody or β-actin antibody from CST (3700S), using standard western blotting procedure.
T3 sequence (Q92918 whole entry): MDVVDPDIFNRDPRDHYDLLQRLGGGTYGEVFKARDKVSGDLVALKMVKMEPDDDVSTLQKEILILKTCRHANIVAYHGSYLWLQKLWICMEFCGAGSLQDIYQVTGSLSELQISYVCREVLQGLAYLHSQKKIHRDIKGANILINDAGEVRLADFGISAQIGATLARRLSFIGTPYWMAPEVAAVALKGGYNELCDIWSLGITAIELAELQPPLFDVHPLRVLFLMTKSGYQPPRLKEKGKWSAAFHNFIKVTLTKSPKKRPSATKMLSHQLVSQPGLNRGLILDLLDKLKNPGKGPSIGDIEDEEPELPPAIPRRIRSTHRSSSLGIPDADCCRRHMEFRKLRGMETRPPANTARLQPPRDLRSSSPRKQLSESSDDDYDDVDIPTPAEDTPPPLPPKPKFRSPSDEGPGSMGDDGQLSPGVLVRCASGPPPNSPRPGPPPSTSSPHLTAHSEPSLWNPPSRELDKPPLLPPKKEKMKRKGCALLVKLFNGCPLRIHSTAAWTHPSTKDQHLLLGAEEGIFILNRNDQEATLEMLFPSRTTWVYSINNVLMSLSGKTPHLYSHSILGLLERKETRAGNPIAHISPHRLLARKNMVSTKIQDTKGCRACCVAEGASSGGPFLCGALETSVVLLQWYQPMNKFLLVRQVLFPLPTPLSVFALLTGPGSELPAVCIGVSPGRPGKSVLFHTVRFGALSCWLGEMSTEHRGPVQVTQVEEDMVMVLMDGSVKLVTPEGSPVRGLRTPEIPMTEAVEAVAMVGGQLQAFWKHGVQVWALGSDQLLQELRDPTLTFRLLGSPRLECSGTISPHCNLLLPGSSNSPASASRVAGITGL

Test [4] has as its system IL-2 production in primary mouse CD3+ T cells. Kind of test: Cytokine measurement: IL-2 production in mouse CD3+ T cells (ELISA). In kind it is cell-based. Conditions: T-cell, plate bound anti-CD3, 40 hrs; for fold induction at 1 µM: 1 uM compound, read-out: IL-2 production Fold change (1 uM); for fold induction at 3 µM: 3 uM compound, read-out: IL-2 production Fold change (3 uM). How it is done: Anti-CD3 Ab was used to provide signal 1 to stimulate mouse CD3+ T cells. Effect of compound stimulation on T cells was measure by IL2 ELISA. Briefly, anti-CD3 Ab was coated onto plates overnight. Isolated T cells from mouse splenocytes were incubated with plate bound CD3 in the presence and absence of compound for 40 hrs. After incubation, the supernatant was collected and IL2 level in the supernatant was determined by mouse IL2 ELISA kit.

What is called Dmax is the greatest extent of degradation seen. Read a low Dmax as a partial loss of target. As a reminder, the IC50 is the concentration needed to halve the response being measured. Read a low IC50 as inhibition by little substance. On to `CCc1c[nH]c2ncc(-c3cccc(N4CCN(C(=O)COC5CCN(c6ccc7c(c6)C(=O)N(C6CCC(=O)NC6=O)C7=O)CC5)CC4=O)c3)c(Cl)c12` (stereo not shown) [Example 16, 5-(4-(2-(4-(3-(4-chloro-3-ethyl-1H-pyrrolo[2,3-b]pyridin-5-yl)phenyl)-3-oxopiperazin-1-yl)-2-oxoethoxy)piperidin-1-yl)-2-(2,6-dioxopiperidin-3-yl)isoindoline-1,3-dione], for which the results for the Dmax at HPK1 protein [1] and on HPK1 protein [3] were 80% and 96%, respectively. Also, the IC50 in the test on HPK1 p-SLP-76 was at most 300 nM; on HPK1 protein [2], at most 10 nM.
Take `CCc1c[nH]c2ncc(-c3cccc(N4CCN(CCCN5CCN(c6cc7c(cc6F)C(=O)N(C6CCC(=O)NC6=O)C7=O)CC5)CC4=O)c3)c(Cl)c12` (stereo not shown) [Example 25]: the Dmax on HPK1 protein [1] and at HPK1 protein [3] was 96% in each case. Further, the IC50 in the test with HPK1 p-SLP-76 lay within 300 to 3000 nM; against HPK1 protein [2], 10 to 100 nM.
`CCc1c[nH]c2ncc(-c3cccc(N4CCN(CCCOC5CCN(c6ccc7c(c6)C(=O)N(C6CCC(=O)NC6=O)C7=O)CC5)CC4=O)c3)c(Cl)c12` (stereo not shown) [Example 35, 5-(4-(3-(4-(3-(4-chloro-3-ethyl-1H-pyrrolo[2,3-b]pyridin-5-yl)phenyl)-3-oxopiperazin-1-yl)propoxy)piperidin-1-yl)-2-(2,6-dioxopiperidin-3-yl)isoindoline-1,3-dione]: the Dmax on HPK1 protein [1] amounted to 95%; at HPK1 protein [3] it was 90%. In addition, the 50% inhibitory concentration (IC50) in the test with HPK1 p-SLP-76 was in the range of 300 to 3000 nM; against HPK1 protein [2], 10 to 100 nM.
As to `O=C1CCC(N2C(=O)c3cc(F)c(N4CCN(CCCN5CCN(c6cccc(-c7cnc8[nH]cc(C9CC9)c8c7Cl)c6)C(=O)C5)CC4)cc3C2=O)C(=O)N1` (stereo not shown) [Example 43], the values for the Dmax on HPK1 protein [1] and at HPK1 protein [3] were 95% and 94%, respectively. Moreover, the half-maximal inhibitory concentration (IC50) was in the range of 300 to 3000 nM in the test with HPK1 p-SLP-76 and 100 to 1000 nM against HPK1 protein [2].
Taken in the same sequence, the figures for `O=C1CCC(N2Cc3cc(C4CCN(CCCN5CCN(c6cccc(-c7cnc8[nH]cc(C9CC9)c8c7Cl)c6)C(=O)C5)CC4)ccc3C2=O)C(=O)N1` (stereo not shown) [Example 54, 3-(5-(1-(3-(4-(3-(4-chloro-3-cyclopropyl-1H-pyrrolo[2,3-b]pyridin-5-yl)phenyl)-3-oxopiperazin-1-yl)propyl)piperidin-4-yl)-1-oxoisoindolin-2-yl)piperidine-2,6-dione] were 95%, 83%, at most 300 nM and at most 10 nM.
On to `O=C1CCC(N2Cc3cc(C4=CCN(CCCN5CCN(c6cccc(-c7cnc8[nH]cc(C9CC9)c8c7Cl)c6)C(=O)C5)CC4)ccc3C2=O)C(=O)N1` (stereo not shown) [Example 56, 3-(5-(1-(3-(4-(3-(4-chloro-3-cyclopropyl-1H-pyrrolo[2,3-b]pyridin-5-yl)phenyl)-3-oxopiperazin-1-yl)propyl)-1,2,3,6-tetrahydropyridin-4-yl)-1-oxoisoindolin-2-yl)piperidine-2,6-dione], for which the values for the Dmax on HPK1 protein [1] and at HPK1 protein [3] were 95% and 98%, respectively. The IC50 with HPK1 p-SLP-76 is 300 to 3000 nM; at HPK1 protein [2], at most 10 nM.
As for `O=C1CCN(c2cccc3cc(N4CCN(CCCN5CCN(c6cccc(-c7cnc8[nH]cc(C9CC9)c8c7Cl)n6)C(=O)C5)CC4)ccc23)C(=O)N1` [Example 69, 1-(6-(4-(3-(4-(6-(4-chloro-3-cyclopropyl-1H-pyrrolo[2,3-b]pyridin-5-yl)pyridin-2-yl)-3-oxopiperazin-1-yl)propyl)piperazin-1-yl)naphthalen-1-yl)dihydropyrimidine-2,4 (1H,3H)-dione], the IC50 in the test with HPK1 p-SLP-76 was 300 to 3000 nM; against HPK1 protein [2], at most 10 nM. For the same molecule, at HPK1 protein [3], the Dmax stood at 74%.
Turning to `O=C1CCN(c2cccc3cc(N4CCC(OCCN5CCN(c6cccc(-c7cnc8[nH]cc(C9CC9)c8c7Cl)n6)C(=O)C5)CC4)ccc23)C(=O)N1` [Example 72], the results for the IC50 in the test on HPK1 p-SLP-76 and against HPK1 protein [2] were 300 to 3000 nM and 10 to 100 nM, respectively. For the same molecule, the Dmax on HPK1 protein [3] was determined as 30%.
In the case of `O=C1CCC(Nc2ccc(C3CCN(CCCN4CCN(c5cccc(-c6cnc7[nH]cc(C8CC8)c7c6Cl)c5)C(=O)C4)CC3)cc2)C(=O)N1` (stereo not shown) [Example 78, 3-((4-(1-(3-(4-(3-(4-chloro-3-cyclopropyl-1H-pyrrolo[2,3-b]pyridin-5-yl)phenyl)-3-oxopiperazin-1-yl)propyl)piperidin-4-yl)phenyl)amino)piperidine-2,6-dione], the results for the Dmax on HPK1 protein [1] and at HPK1 protein [3] were 88% and 90%, respectively. In addition, the IC50 was 300 to 3000 nM with HPK1 p-SLP-76 and at most 10 nM at HPK1 protein [2].
Turning to `O=C1CCC(N2C(=O)c3ccc(N4CCC(COC(=O)N5CCN(c6cccc(-c7cnc8[nH]cc(C9CC9)c8c7Cl)c6)C(=O)C5)CC4)cc3C2=O)C(=O)N1` (stereo not shown) [Example 88], the IC50 with HPK1 p-SLP-76 is above 10000 nM; against HPK1 protein [2] it was 10 to 100 nM. In test [4], the fold induction at 1 µM was found to be 2.3. The fold induction at 3 µM in test [4] was determined as 2.4.
With `O=C1CCC(N2C(=O)c3ccc(OCCC4CN(C(=O)N5CCN(c6cccc(-c7cnc8[nH]cc(C9CC9)c8c7Cl)c6)C(=O)C5)C4)cc3C2=O)C(=O)N1` (stereo not shown) [Example 95, 5-(2-(1-(4-(3-(4-chloro-3-cyclopropyl-1H-pyrrolo[2,3-b]pyridin-5-yl)phenyl)-3-oxopiperazine-1-carbonyl)azetidin-3-yl)ethoxy)-2-(2,6-dioxopiperidin-3-yl)isoindoline-1,3-dione], in test [4], the fold induction at 1 µM is 1.8 and the fold induction at 3 µM amounted to 2.7. This molecule returned an IC50 against HPK1 protein [2] of 10 to 100 nM.
On to `CCc1c[nH]c2ncc(-c3cccc(N4CCN(S(=O)(=O)CCCN5CCN(c6ccc7c(c6)C(=O)N(C6CCC(=O)NC6=O)C7=O)CC5)CC4=O)c3)c(Cl)c12` (stereo not shown) [Example 99, 5-(4-(3-((4-(3-(4-chloro-3-ethyl-1H-pyrrolo[2,3-b]pyridin-5-yl)phenyl)-3-oxopiperazin-1-yl)sulfonyl)propyl)piperazin-1-yl)-2-(2,6-dioxopiperidin-3-yl)isoindoline-1,3-dione], for which the Dmax on HPK1 protein [1] came out at 90%; on HPK1 protein [3] it was 99%. The concentration for half-maximal inhibition (IC50) with HPK1 p-SLP-76 was at most 300 nM; at HPK1 protein [2], 10 to 100 nM.
Take `O=C1CCC(c2ccc(C3CCN(CCCS(=O)(=O)N4CCN(c5cccc(-c6cnc7[nH]cc(C8CC8)c7c6Cl)c5)C(=O)C4)CC3)cc2)C(=O)N1` (stereo not shown) [Example 102, 3-(4-(1-(3-((4-(3-(4-chloro-3-cyclopropyl-1H-pyrrolo[2,3-b]pyridin-5-yl)phenyl)-3-oxopiperazin-1-yl)sulfonyl)propyl)piperidin-4-yl)phenyl)piperidine-2,6-dione]: the IC50 in the test on HPK1 p-SLP-76 is 300 to 3000 nM; at HPK1 protein [2], at most 10 nM. For the same molecule, the fold induction at 1 µM in test [4] was determined as 2.9. Further, the fold induction at 3 µM in test [4] was 2.6.

Values taken from patent publication US20240368159A1, “HPK1 DEGRADERS, COMPOSITIONS COMPRISING THE HPK1 DEGRADER, AND METHODS OF USING THE SAME” (BIOFRONT LTD, priority 2021, published 2024).
